Experimental data published in BindingDB's records for doi:10.7270/Q28G8J4C (Broad Institute, 2009).

Each molecule was assayed against T1, POsterior Segregation (Caenorhabditis elegans, UniProt G5EF15) (assay: inhibitors of POS-1/mex-3 RNA binding, dose response, biochemical, fluorescence polarization (AID 1964)).
T1 sequence (G5EF15 whole entry): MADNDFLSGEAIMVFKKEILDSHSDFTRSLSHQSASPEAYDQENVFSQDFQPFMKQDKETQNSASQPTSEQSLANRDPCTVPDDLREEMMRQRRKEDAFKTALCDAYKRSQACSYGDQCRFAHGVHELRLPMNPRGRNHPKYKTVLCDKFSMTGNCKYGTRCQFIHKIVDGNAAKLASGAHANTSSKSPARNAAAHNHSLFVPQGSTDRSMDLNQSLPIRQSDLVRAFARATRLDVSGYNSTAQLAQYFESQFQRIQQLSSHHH

First: Cc1sc2ncnc(N=NC(C)c3ccccn3)c2c1C (stereo unspecified) [5,6-dimethyl-N-(1-pyridin-2-ylethylideneamino)thieno[2,3-d]pyrimidin-4-amine]
Second: c1ccc(CN=Nc2nc3ccccc3[nH]2)nc1
The EC50 of the first is 3.1-fold lower: 23.3 µM for the first, 72.9 µM for the second.

Compared with `Cc1ccc2c(c1)=C(NNc1ccccc1C)C(=O)N=2`, `Cc1cccc(NNC2=c3cc(Br)ccc3=NC2=O)c1` [5-bromo-3-[2-(3-methylphenyl)hydrazinyl]indol-2-one] is lower in EC50: over 300 µM for the first, 68.3 µM for the second. The second is the more potent here.

`O=C1NC(=O)N(CCc2ccc(F)cc2)C(=O)C1=CNCCCn1ccnc1` [(5E)-1-[2-(4-fluorophenyl)ethyl]-5-[(3-imidazol-1-ylpropylamino)methylene]barbituric acid] and `O=C1NC(=O)N(CCc2ccccc2)C(=O)C1=CNCCCn1ccnc1` [(5E)-5-[(3-imidazol-1-ylpropylamino)methylene]-1-phenethyl-barbituric acid] cannot be ordered by EC50: over 300 µM for the first, over 300 µM for the second.

`CCOC(=O)C1=C(C)OC(=N)C(C#N)C1c1ccc(O)c(OC)c1` (stereo unspecified) [6-amino-5-cyano-4-(4-hydroxy-3-methoxyphenyl)-2-methyl-4H-pyran-3-carboxylic acid ethyl ester] and `COc1cc(C2c3c(-c4cccnc4)n[nH]c3OC(=N)C2C#N)cc(Br)c1O` (stereo unspecified) cannot be ordered by EC50: over 300 µM for the first, over 300 µM for the second.

Going from `O=[N+]([O-])c1cc/c(=N\c2ccccc2O)c2no[nH]c1-2` [MLS001206694] to `Cc1n[nH]c(C)c1Sc1ccccc1/N=C/C1C=C(Cl)C=C([N+](=O)[O-])C1=O` (stereo unspecified) [(6E)-4-chloranyl-6-[[[2-[(3,5-dimethyl-1H-pyrazol-4-yl)sulfanyl]phenyl]amino]methylidene]-2-nitro-cyclohexa-2,4-dien-1-one], the EC50 rises from 24.4 µM to over 300 µM.

Going from `O=C1C=C(NNC(=O)c2sc3ccccc3c2Cl)CCC1` [3-chloranyl-N-[(3-oxidanylidenecyclohexylidene)amino]-1-benzothiophene-2-carboxamide] to `Cc1nnc(N2C(=O)C(=O)C(C(=O)c3ccco3)C2c2cccc3ccccc23)s1` (stereo unspecified) [3-(furan-2-carbonyl)-4-hydroxy-1-(5-methyl-1,3,4-thiadiazol-2-yl)-2-naphthalen-1-yl-2H-pyrrol-5-one], the EC50 rises from 22 µM to over 300 µM.

Compared with `COC1=CC(CN=Nc2[nH]c(=O)nnc2C)C=C([N+](=O)[O-])C1=O` (stereo unspecified) [5-[[(E)-(3-methoxy-5-nitro-4-oxo-1-cyclohexa-2,5-dienylidene)methyl]hydrazo]-6-methyl-2H-1,2,4-triazin-3-one], `O=C(Cc1nc2cc([N+](=O)[O-])ccc2[nH]c1=O)c1ccccc1` [6-Nitro-3-(2-oxo-2-phenyl-ethylidene)-3,4-dihydro-1H-quinoxalin-2-one] is 2.5-fold higher in EC50: 7.98 µM for the first, 20.1 µM for the second. The first is the more potent here.

`N#CC1C(=N)OC2=C(C(=O)CC(c3ccccc3)C2)C1c1ccc2c(c1)OCO2` (stereo unspecified) and `N#CC1C(=N)OC2=C(C(=O)CCC2)C1c1ccc2c(c1)OCO2` (stereo unspecified) cannot be ordered by EC50: over 300 µM for the first, over 300 µM for the second.

Going from `O=C1c2cccc([N+](=O)[O-])c2C(=O)N1n1c(O)csc1=S` [2-(4-keto-2-thioxo-thiazolidin-3-yl)-4-nitro-isoindoline-1,3-quinone] to `Oc1ccc(C=Nn2c(O)csc2=S)c(O)c1O` [3-[[(E)-[2,3-bis(oxidanyl)-4-oxidanylidene-cyclohexa-2,5-dien-1-ylidene]methyl]amino]-2-sulfanylidene-1,3-thiazolidin-4-one], the EC50 falls from 24.9 µM to 5.17 µM (4.8-fold).

`C[C@H]1c2cccc(O)c2C(=O)C2C(=O)[C@]3(O)C(=O)C(C(N)=O)C(=O)[C@@H](N(C)C)[C@@H]3[C@@H](O)[C@@H]21` (stereo partly specified) and `COc1ccc(C2C(C(=O)c3ccco3)C(=O)C(=O)N2c2nnc(C)s2)cc1OC` (stereo unspecified) [2-(3,4-dimethoxyphenyl)-3-(furan-2-carbonyl)-4-hydroxy-1-(5-methyl-1,3,4-thiadiazol-2-yl)-2H-pyrrol-5-one] cannot be ordered by EC50: over 300 µM for the first, over 300 µM for the second.

Compared with `Cc1cccc(Nc2nc(O)cs2)c1` [2-(3-methylanilino)-1,3-thiazol-4-one], `O=C(Cc1nc2cc(Cl)ccc2oc1=O)c1cccs1` [(3Z)-6-chloranyl-3-(2-oxidanylidene-2-thiophen-2-yl-ethylidene)-4H-1,4-benzoxazin-2-one] is lower in EC50: over 300 µM for the first, 230 µM for the second.

Going from `Cc1ccc(C2C3CN(C(C)C)CCC3=C(C#N)C(=N)C2(C#N)C#N)cc1` (stereo unspecified) [SMR000034220] to `N#CC1=C2CCOC[C@@H]2[C@@H](c2ccsc2)C(C#N)(C#N)C1=N` [(8R,8aR)-6-amino-8-(3-thienyl)-1,3,8,8a-tetrahydroisochromene-5,7,7-tricarbonitrile], the EC50 rises from 7.15 µM to over 300 µM. The first is the more potent here.

`CC(=N)C(C#N)C(=O)CSc1ncnc2ccccc12` (stereo unspecified) [(E)-3-amino-2-(2-quinazolin-4-ylsulfanylacetyl)but-2-enenitrile] and `CC1(C)CC(=O)C2=C(C1)OC(=N)C(C#N)C2c1ccccc1` (stereo unspecified) [2-amino-5-keto-7,7-dimethyl-4-phenyl-6,8-dihydro-4H-chromene-3-carbonitrile] cannot be ordered by EC50: over 300 µM for the first, over 300 µM for the second.

Compared with `CCN(CC)c1ccc(C=NC(C#N)C(=N)C#N)cc1` (stereo unspecified) [SMR000023871], `CN(C)c1ccc(NC=C2C(=O)NC(=O)N(CCC3=CCCCC3)C2=O)cc1` [(5Z)-1-[2-(cyclohexen-1-yl)ethyl]-5-[[[4-(dimethylamino)phenyl]amino]methylidene]-1,3-diazinane-2,4,6-trione] is higher in EC50: 281 µM for the first, over 300 µM for the second.

`Cc1c(NC=C2C(=O)NC(=O)N(Cc3ccco3)C2=O)c(=O)n(-c2ccccc2)n1C` [(5E)-1-(2-furfuryl)-5-[[(3-keto-1,5-dimethyl-2-phenyl-3-pyrazolin-4-yl)amino]methylene]barbituric acid] and `CC(=O)N1CCN(c2ccc(NC=C3C(=O)NC(=O)N(Cc4ccccc4)C3=O)cc2)CC1` [MLS000041641] cannot be ordered by EC50: over 300 µM for the first, over 300 µM for the second.

Going from `Oc1ccc2ccccc2c1CN=Nc1nnc(-c2ncc[nH]2)c2ccccc12` [SMR000151639] to `CC(N=Nc1ccc([N+](=O)[O-])cc1[N+](=O)[O-])c1cc2c(ccc3ccccc32)oc1=O` (stereo unspecified) [2-[1-[(2,4-dinitrophenyl)hydrazinylidene]ethyl]-3-benzo[f][1]benzopyranone], the EC50 rises from 48.7 µM to over 300 µM. The first is the more potent here.

`CCCCN1C(=O)NC(=O)C(=CNNC(=O)c2ccncc2)C1=O` [Isonicotinic acid N'-[1-butyl-2,4,6-trioxo-tetrahydro-pyrimidin-(5E)-ylidenemethyl]-hydrazide] and `CCN(CC)CCNC=C1C(=O)NC(=O)N(CCc2ccccc2)C1=O` [(5E)-5-[[2-(diethylamino)ethylamino]methylene]-1-phenethyl-barbituric acid] cannot be ordered by EC50: over 300 µM for the first, over 300 µM for the second.

Going from `O=C1Nc2ccccc2/C1=N/NC(=S)Nc1ccc(O)cc1` [1-(4-hydroxyphenyl)-3-[(2-oxidanylideneindol-3-yl)amino]thiourea] to `O=C1Nc2ccccc2C1=NNc1ccccc1` [3-(phenylhydrazo)-2-indolone], the EC50 falls from 16.3 µM to 7.37 µM (2.2-fold).

Going from `COc1ccc(N=CCC(=O)c2ccc(C)cc2)cc1OC` [SMR000269732] to `COc1ccc(C(=O)Nc2nnc(CC(=O)NN=Cc3ccc(O)cc3O)s2)cc1` [4-methoxy-N-[5-[2-oxidanylidene-2-[2-[(E)-(2-oxidanyl-4-oxidanylidene-cyclohexa-2,5-dien-1-ylidene)methyl]hydrazinyl]ethyl]-1,3,4-thiadiazol-2-yl]benzamide], the EC50 falls from over 300 µM to 125 µM. The second is the more potent here.

Compared with `O=C1N=c2ccc(Br)cc2=C1NNc1nnn[nH]1` [5-bromanyl-3-[2-(2H-1,2,3,4-tetrazol-5-yl)hydrazinyl]indol-2-one], `CS(=O)(=O)Nc1nc2n(n1)C(c1ccccc1)CC(c1ccc(Br)cc1)=N2` (stereo unspecified) is higher in EC50: 14 µM for the first, over 300 µM for the second. The first is the more potent here.

`CCCCOc1cccc(C2C(C(=O)c3ccc(C)o3)C(=O)C(=O)N2c2nnc(C)s2)c1` (stereo unspecified) [2-(3-butoxyphenyl)-3-(5-methylfuran-2-yl)carbonyl-1-(5-methyl-1,3,4-thiadiazol-2-yl)-4-oxidanyl-2H-pyrrol-5-one] and `COc1ccc(C2C(C(=O)c3ccco3)C(=O)C(=O)N2c2nnc(C)s2)cc1` (stereo unspecified) [3-(furan-2-carbonyl)-4-hydroxy-2-(4-methoxyphenyl)-1-(5-methyl-1,3,4-thiadiazol-2-yl)-2H-pyrrol-5-one] are within 1.5-fold of each other in EC50: 102 µM for the first, 109 µM for the second.

`N#CC1C(=N)OC2=C(C(=O)CCC2)C1c1cc2c(cc1Br)OCO2` (stereo unspecified) [2-azanyl-4-(6-bromanyl-1,3-benzodioxol-5-yl)-5-oxidanylidene-4,6,7,8-tetrahydrochromene-3-carbonitrile] and `CC1(C)CC(=O)C2=C(C1)OC(=N)C(C#N)C2c1ccccc1OC(=O)N1CCOCC1` (stereo unspecified) [2-(2-amino-3-cyano-7,7-dimethyl-5-oxo-5,6,7,8-tetrahydro-4H-chromen-4-yl)phenyl morpholine-4-carboxylate] cannot be ordered by EC50: over 300 µM for the first, over 300 µM for the second.

`COc1ccc(OC)c(NC=C2C(=O)NC(=S)N(Cc3ccccc3)C2=O)c1` and `COc1ccc(OC)c(N2C(=O)NC(=O)C(=Cc3c[nH]c4ccccc34)C2=O)c1` [(5E)-1-(2,5-dimethoxyphenyl)-5-(1H-indol-3-ylmethylene)pyrimidine-2,4,6(1H,3H,5H)-trione] cannot be ordered by EC50: over 300 µM for the first, over 300 µM for the second.

`COc1ccc(C=C2CCCC(C(=O)C(F)(F)F)C2=O)cc1` (stereo unspecified) [SMR000142699] and `CCOC(=O)C1C(=O)C(=Cc2cn(CC(=O)N3CCCC3)c3ccccc23)S/C1=N\c1ccccc1` (stereo unspecified) [(5Z)-2-anilino-4-keto-5-[[1-(2-keto-2-pyrrolidino-ethyl)indol-3-yl]methylene]thiophene-3-carboxylic acid ethyl ester] are within 1.5-fold of each other in EC50: 36 µM for the first, 47.5 µM for the second.

Compared with `O=C1NC(=O)N(c2cccc(F)c2)C(=O)C1=Cc1c[nH]c2ccccc12`, `CC(C)c1nnc(N2C(=O)C(=O)C(C(=O)c3cccs3)C2c2ccccc2)s1` (stereo unspecified) [3-hydroxy-1-(5-isopropyl-1,3,4-thiadiazol-2-yl)-5-phenyl-4-(2-thenoyl)-3-pyrrolin-2-one] is lower in EC50: over 300 µM for the first, 33.9 µM for the second. The second is the more potent here.

`Clc1ccc(C2=Nc3ncnn3C(c3ccco3)C2)cc1` (stereo unspecified) was tested, and the EC50 was 24.7 µM.
